The text below walks through data of paper PMC5046141, “Discovery of Isoquinolinoquinazolinones as a Novel Class of Potent PPARγ Antagonists with Anti-adipogenic Effects” (Scientific Reports, 2016).

As a reminder, the melting point is the temperature of the solid-liquid transition. A word on the pIC50: it is −log10 of the IC50, conventionally taken in molar units.

pIC50: −log10 of the molar value.

For one series, the system named is 3T3-L1 preadipocytes. Kind of series: Oil Red O staining assay of adipocyte differentiation. In kind it is cell-based, mouse. Particulars: for inhibition at 25 µM: Mus musculus, 3T3-L1, relative absorbance from Oil Red O staining at 25 μM, read-out: Inhibitory activity (%) on adipocyte differentiation. The protocol: The GW9662-mediated inhibition of PPARγ was confirmed using an Oil Red O staining assay to measure adipocyte differentiation. To investigate whether the novel compounds could inhibit adipocyte differentiation, 3T3-L1 preadipocytes were incubated with differentiation medium (MDI; insulin, dexamethasone, and isobutyl methyl xanthine) in the presence of increasing concentrations of isoquinolinoquinazolinones. Adipogenesis was analyzed using Oil Red O staining after treatment with the compounds.
The mouse preadipocyte cell line 3T3-L1 was maintained at 37 °C in humidified air with 5% CO2. 3T3-L1 cells were cultured in Dulbecco’s modified Eagle medium (DMEM; Life Technologies) supplemented with 10% bovine serum (BS; Gibco Invitrogen, Carlsbad, California, USA) as growth medium. For adipocyte differentiation, cells were cultured for 2 days to full confluence in a 24-well plate and the growth medium was then replaced (day 0) with DMEM supplemented with 10% fetal bovine serum (FBS, Gibco Invitrogen, Carlsbad, California, USA), 5 μg/mL insulin (Sigma, St. Louis, Missouri, USA), 0.5 mM 3-isobutyl-1-methylxanthine (Sigma), and 1 μM dexamethasone (Sigma). After 48 h, the differentiation medium was replaced (day 2) with DMEM + 10% FBS containing 5 μg/mL insulin, and the cells were allowed to accumulate lipid droplets until experimental use.
The accumulation of lipids signifying the formation of adipocytes was observed by staining the differentiated cells with Oil Red O. Following differentiation, cells were washed twice with phosphate-buffered saline (PBS), fixed with 10% formalin for 60 min. Oil Red O stock solution (0.5%) was prepared in isopropanol and filtered in cellulose nitrate filters. Cells were stained with Oil Red O diluted 6:4 in water for 1 h at room temperature. Excess Oil Red O dye was washed off twice with distilled water and then dried. The stained lipid droplets within cells were visualized using an optical microscope and photographed with a digital camera at 100× magnification.

For another series, the target named is T1, PPARγ2 (Mus musculus, UniProt P37238).
T1 construct: expressed in transfected cells; host or cells: 3T3-L1 (mouse preadipocytes), pCS4 CMV vector
T1 sequence (P37238 1-505): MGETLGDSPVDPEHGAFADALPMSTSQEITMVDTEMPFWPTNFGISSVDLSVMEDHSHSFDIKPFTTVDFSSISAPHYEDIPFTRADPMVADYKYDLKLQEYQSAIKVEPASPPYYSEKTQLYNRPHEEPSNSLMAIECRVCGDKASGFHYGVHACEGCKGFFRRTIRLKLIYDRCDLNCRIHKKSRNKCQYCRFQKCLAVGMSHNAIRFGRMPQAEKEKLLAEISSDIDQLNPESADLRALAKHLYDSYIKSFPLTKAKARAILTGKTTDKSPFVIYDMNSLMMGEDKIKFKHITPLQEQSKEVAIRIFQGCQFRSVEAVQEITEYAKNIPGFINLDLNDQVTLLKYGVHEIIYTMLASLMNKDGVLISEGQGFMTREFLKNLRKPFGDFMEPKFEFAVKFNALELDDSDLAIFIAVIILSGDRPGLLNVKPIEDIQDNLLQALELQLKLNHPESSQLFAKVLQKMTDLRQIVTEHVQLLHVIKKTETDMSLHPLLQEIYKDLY
As to the kind of experiment: PPRE-Luc luciferase reporter assay of PPARγ2-induced transcriptional activity in 3T3-L1 cells. In kind it is cell-based. The method, then: To analyze whether isoquinolinoquinazolinones inhibit the transactivation of PPARγ, 3T3-L1 cells were cotransfected with full-length PPARγ2 expression vector with a peroxisome proliferator response element (PPRE)-driven luciferase reporter gene (PPRE-Luc) that has been reported to respond to PPARγ[23][24]. […] Titration curves were generated using Graph Pad Prism®, and the IC50 value of each compound with respect to PPARγ2-induced transcriptional activity was determined.
The transcription activity was determined in 3T3-L1 cells transiently co-transfected with PPRE-driven luciferase reporter gene (PPRE-Luc) and PPARγ2 expression vector. […] After 24 h of transfection, the cells were cultured with indicated combination for 12 h. Luciferase activity was measured after 36 h.
For plasmids expressing PPARγ2, full length PPARγ2 (mouse, 1518 bp: NCBI Reference Sequence: NP_035276.2) was subcloned into CMV promoter-derived mammalian expression vector (pCS4). Plasmids for C285G, R288G mutant PPARγ2 were generated by PCR-based site-directed mutagenesis and also subcloned into CMV promoter-derived mammalian expression vector (pCS4).
3T3-L1 cells were transfected for indicated combinations of expression plasmids along with a luciferase reporter plasmid (PPRE-Luc). PPRE-Luc contains the consensus PPAR responsive element (PPRE). pCMV-β-gal was co-transfected for normalization of transfection efficiency. 24 h after transfection, cells were treated with indicated compounds for 12 h. Luciferase activities were measured using a luciferase reporter assay kit (Promega, Madison, WI, USA). Experiments were performed in triplicate and repeated at least three times.
Background: In a reporter assay the amount or activity of a reporter protein is the signal.

On to `Cc1cccc2c(=O)n3c(cc12)-c1ccccc1OC3` [Compound 10a], for which, in the series on 3T3-L1 preadipocytes, the inhibition at 25 µM was determined as 23.6%.
For the molecule `O=c1c2ccccc2cc2n1CNc1ccccc1-2` [Compound 8a, 5H-Isoquinolino[2,3-c]quinazolin-8(6H)-one], the melting point fell in the range of 204.3 to 206.3 °C. Also, in the series with 3T3-L1 preadipocytes, the inhibition at 25 µM was 53%.
The corresponding values for `Cc1ccc2c(=O)n3c(cc2c1)-c1ccc(Cl)cc1NC3` [Compound 8e] are 210 to 211.5 °C and 63.3%.
For `COc1ccc2c(=O)n3c(cc2c1OC)-c1ccccc1OC3` [Compound 10d], in the series with 3T3-L1 preadipocytes, the inhibition at 25 µM came out at 62.5%.
In turn, `Cc1ccc2c(=O)n3c(cc2c1)-c1ccccc1NC3` [Compound 8d] yielded a melting point of 119.1 to 120.4 °C. Also, the inhibition at 25 µM with 3T3-L1 preadipocytes is 53.9%.
`COc1ccc2c(=O)n3c(cc2c1)-c1cc(Cl)ccc1NC3` [Compound 8m] had a melting point of 203.9 to 205.2 °C. Further, the inhibition at 25 µM in the series on 3T3-L1 preadipocytes came out at 28.1%.
Consider `Cc1cc2cc3n(c(=O)c2cc1C)COc1cc2c(cc1-3)OCO2` [Compound 10h], for which, in the series with 3T3-L1 preadipocytes, the inhibition at 25 µM came to 38.8%.
`Cc1ccc2c(=O)n3c(cc2c1)-c1cc2c(cc1OC3)OCO2` [Compound 10f]: the inhibition at 25 µM in the series with 3T3-L1 preadipocytes turned out to be 30.5%.
For the molecule `COc1ccc2cc3[n+](cc2c1OC)CCc1cc2c(cc1-3)OCO2` [Berberine], the inhibition at 25 µM in the series with 3T3-L1 preadipocytes stood at 71.4%. Further, the “inhibition of PPARγ2 transfection (transcriptional activity), with rosiglitazone stimulation” value at PPARγ2 (5 μM, with rosiglitazone) came out at 40%. For the same molecule, the “inhibition of PPARγ2 transfection (transcriptional activity), compound alone” value on PPARγ2 (5 μM, without rosiglitazone) was determined as 33%. Besides, the pIC50 on PPARγ2 (3T3-L1 cotransfected with PPARγ2 and PPRE-Luc, read-out: IC50 with respect to PPARγ2-induced transcriptional activity) is 5.18.
Regarding “6,8-Dihydro-5H-isoquinolino[2,3-c]quinazoline [Compound 9]”, the “Inhibitory activity (%) on adipocyte differentiation” value in the series on 3T3-L1 preadipocytes (relative absorbance from Oil Red O staining at 25 μM) worked out at 62.5%.
For `Cc1cccc2c(=O)n3c(cc12)-c1ccccc1NC3` [Compound 8b], the melting point was in the range of 226.5 to 228.1 °C. For the same molecule, in the series on 3T3-L1 preadipocytes, the inhibition at 25 µM amounted to 49%.
Take `Cc1cc2cc3n(c(=O)c2cc1C)CNc1cc(Cl)ccc1-3` [Compound 8j]: the melting point was in the range of 235.1 to 236.4 °C. For the same molecule, the inhibition at 25 µM with 3T3-L1 preadipocytes turned out to be 53%.
The molecule `COc1ccc2c(=O)n3c(cc2c1)-c1ccccc1NC3` [Compound 8k] returned a melting point of 145.4 to 148 °C. The inhibition at 25 µM in the series with 3T3-L1 preadipocytes is 56.1%.
Consider `Cc1cc2cc3n(c(=O)c2cc1C)COc1ccccc1-3` [Compound 10c], for which the inhibition at 25 µM in the series with 3T3-L1 preadipocytes was determined as 60.4%.
Consider `Cc1cc2cc3n(c(=O)c2cc1C)CNc1ccc(Cl)cc1-3` [Compound 8i], for which the melting point is 268.7 to 270.6 °C. For the same molecule, the inhibition at 25 µM with 3T3-L1 preadipocytes amounted to 49.8%.
As for `Cc1cc2cc3n(c(=O)c2cc1C)CNc1ccccc1-3` [Compound 8h], the melting point fell in the range of 212.7 to 214.2 °C. For the same molecule, the inhibition at 25 µM in the series on 3T3-L1 preadipocytes was determined as 41.6%.
In the case of `Cc1cccc2c(=O)n3c(cc12)-c1cc(Cl)ccc1NC3` [Compound 8c], the melting point fell in the range of 240.5 to 242.1 °C. Moreover, the inhibition at 25 µM in the series on 3T3-L1 preadipocytes turned out to be 30.9%.
For `CN(CCOc1ccc(CC2SC(=O)NC2=O)cc1)c1ccccn1` (stereo not shown) [Rosiglitazone], the “increase of luciferase expression” value at PPARγ2 (rosiglitazone treatment, PPRE-Luc) is “up to 3 fold”.
`Cc1ccc2cc3n(c(=O)c2c1)CNc1ccccc1-3` [Compound 8f] displayed a melting point of 213.2 to 214.5 °C. The inhibition at 25 µM with 3T3-L1 preadipocytes came to 28.6%.
The corresponding values for `COc1ccc2c(=O)n3c(cc2c1)-c1ccc(Cl)cc1NC3` [Compound 8l] are 213.6 to 215.1 °C and 39.1%.
Regarding `Cc1ccc2c(=O)n3c(cc2c1)-c1ccccc1OC3` [Compound 10b], in the series with 3T3-L1 preadipocytes, the inhibition at 25 µM was 25.7%.
Regarding `Cc1ccc2cc3n(c(=O)c2c1)COc1cc2c(cc1-3)OCO2` [Compound 10g], in the series on 3T3-L1 preadipocytes, the inhibition at 25 µM was 40.9%.
With `Cc1cccc2c(=O)n3c(cc12)-c1cc2c(cc1OC3)OCO2` [Compound 10e], the inhibition at 25 µM with 3T3-L1 preadipocytes turned out to be 44.8%.
Regarding `Cc1ccc2cc3n(c(=O)c2c1)CNc1ccc(Cl)cc1-3` [Compound 8g], the melting point was 202.6 to 205.1 °C. Besides, the inhibition at 25 µM in the series on 3T3-L1 preadipocytes worked out at 42.4%.
